The term pIC50 denotes the IC50 on a negative log10 scale, so that one unit is a factor of ten. As usually defined, the microsomal CLint is the rate of metabolic loss divided by the concentration. A word on the pEC50: it is the negative decadic logarithm of the EC50, by convention in mol/L.

pEC50, pIC50: −log10 of the molar value.

The source of these data is publication PMC6225212, “Synthesis and Pharmacological Evaluation of Novel Silodosin-Based Arylsulfonamide Derivatives as α1A/α1D-Adrenergic Receptor Antagonist with Potential Uroselective Profile” (Molecules : A Journal of Synthetic Chemistry and Natural …, 2018).

Series [1] concerns the target T1, α1B-ARs (Homo sapiens, UniProt P35368).
T1 sequence (P35368 1-520): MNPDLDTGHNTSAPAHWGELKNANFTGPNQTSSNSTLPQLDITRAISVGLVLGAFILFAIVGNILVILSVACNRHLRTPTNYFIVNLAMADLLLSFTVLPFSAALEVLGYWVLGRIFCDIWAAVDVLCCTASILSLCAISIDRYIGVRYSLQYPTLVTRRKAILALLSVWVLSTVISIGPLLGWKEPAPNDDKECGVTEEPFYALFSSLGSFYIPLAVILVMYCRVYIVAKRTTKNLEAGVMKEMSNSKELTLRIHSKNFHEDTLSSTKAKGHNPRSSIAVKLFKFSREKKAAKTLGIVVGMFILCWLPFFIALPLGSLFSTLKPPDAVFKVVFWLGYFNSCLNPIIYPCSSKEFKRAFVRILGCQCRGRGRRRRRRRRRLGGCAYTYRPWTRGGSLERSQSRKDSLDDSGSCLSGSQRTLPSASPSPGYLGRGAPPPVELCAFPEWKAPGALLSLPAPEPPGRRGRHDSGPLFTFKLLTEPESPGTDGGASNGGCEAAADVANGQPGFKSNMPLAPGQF
The experiment in a line: Intrinsic activity at α1B-ARs, aequorin calcium mobilization luminescence. It counts as cell-based. Further details: key to α1B Profile: ANT—antagonist; AGO—agonist. Conditions: for pIC50: antagonist mode, three independent experiments; for α1B Profile: functional profile. The protocol:
(§1) The intrinsic activity at α1A-ARs of the selected compounds was assessed by fluorescence detection (Invitrogen, Thermo Fisher Scientific, Carlsbad, CA, USA) of β-lactamase reporter genes using a FRET-enabled substrate. The intrinsic activity at α1B-ARs and α1D-ARs was determined by luminescence detection (PerkinElmer, Zaventem, Belgium) of calcium mobilization using the recombinant-expressed jellyfish photoprotein (Aequorin).
(§2) Intrinsic activity assay to α1B- and α1D-ARs was performed according to the manufacturer of the ready-to-use cells with stable expression of the α1B-adrenoreceptors and α1D-adrenoreceptors, respectively (PerkinElmer, Zaventem, Belgium). For measurement, cells (frozen, ready to use) were thawed and resuspended in 10 mL of assay buffer containing 5 µM coelenterazine h. This cells suspension was put in a 10 mL Falcon tube, fixed onto a rotating heel, and incubated for overnight at rt in the dark (8 rpm; 45° angle). Cells were diluted with Assay Buffer to 5000 cells/20 µL. Agonistic ligands 2 × (50 µL/well), diluted in Assay Buffer, were prepared in ½ white polystyrene area plates, and the cell suspension was dispensed in 50 µL volume on the ligands using the injector. The light emitted was recorded for 20 s. Cells with antagonist were incubated for 15 min at room temperature. Thereafter, 50 µL of agonist (3 × EC80 final concentration) was injected into the mix of cells and antagonist and the light emitted was recorded for 20 s.
(A change in cytosolic calcium serves as a functional read-out for many receptors and channels.)

The nature of series [2]: In vitro metabolic stability in rat-liver microsomes (RLM). It counts as in vitro ADME. To be noted: for Major Metabolic Pathway: RLM; for microsomal CLint at 10 μM / half-life at 10 μM: male, rat, rat liver microsomes, pH 7.4, RLM 0.2 mg/mL, compound 10 μM, 37 °C; for half-life at 10 μM: read-out: t½. The protocol:
In vitro biotransformation assays of selected compounds 9 and 10 were performed using rat-liver microsomes (RLM), potassium-phosphate buffer, NADPH-regenerating system (NADP, glucose-6-phosphate, glucose-6-phosphate dehydrogenase), and levallorphan as internal standard, according to the previously published procedure. Compound I and the drug tamsulosin were used as reference standard. UPLC/MS analysis (Waters Corporation, Milford, MA, USA) was performed to determine the quantity of the starting material left in solution. The in vitro half-time (t1/2) for test compounds was determined from the slope of the linear regression of ln % parent compound remaining versus incubation time. The calculated t1/2 was incorporated into the following equation to obtain intrinsic clearance: (Clint) = (volume of incubation [µL]/protein in the incubation [mg]) × 0.693/t1/2.
Metabolic stability of tested compound was analyzed using incubation systems, composed of: tested compounds (10 μM), RLMs (microsomes from rat male liver, pooled; 0.2 mg/mL; Sigma Aldrich), NADPH-regenerating system (NADP+, glucose-6-phosphate and glucose-6-phosphate dehydrogenase in 100mM potassium buffer, pH 7.4; all from Sigma Aldrich), and potassium buffer, pH 7.4. […] Firstly, all samples contained incubation mixture (without NADPH-regenerating system) were preincubated in a thermoblock at 37 °C for 10 min. Then reaction was initiated by the addition of NADPH-regenerating system. In control samples NADPH-regenerating system was replaced with potassium buffer. Probes were incubated in thermoblock for 15 and 30 min at 37 °C. After addition of internal standard (levallorphan, 10 μM), the biotransformation process was stopped by addition of perchloric acid (69–72%, by volume). Next, samples were centrifuged (Centrifuge 5427 R, Eppendorf, Hamburg, Germany) and supernatants were analyzed using UPLC/MS (Waters Corporation). All experiments were run in duplicates. Half-life time was evaluated using a nonlinear regression model using Graph Pad Prism software (Graph Pad Software, La Jolla, San Diego, CA, USA) and intrinsic clearance was calculated from the equation Clint = (volume of incubation [μL]/protein in the incubation [mg]) ×∙0.693/t1/2 [33].
For orientation: Microsomes from liver hold many membrane-bound enzymes, among them those of drug oxidation.

The target in series [3] is T2, α1D-ARs (Homo sapiens, UniProt P25100).
T2 sequence (P25100 1-572): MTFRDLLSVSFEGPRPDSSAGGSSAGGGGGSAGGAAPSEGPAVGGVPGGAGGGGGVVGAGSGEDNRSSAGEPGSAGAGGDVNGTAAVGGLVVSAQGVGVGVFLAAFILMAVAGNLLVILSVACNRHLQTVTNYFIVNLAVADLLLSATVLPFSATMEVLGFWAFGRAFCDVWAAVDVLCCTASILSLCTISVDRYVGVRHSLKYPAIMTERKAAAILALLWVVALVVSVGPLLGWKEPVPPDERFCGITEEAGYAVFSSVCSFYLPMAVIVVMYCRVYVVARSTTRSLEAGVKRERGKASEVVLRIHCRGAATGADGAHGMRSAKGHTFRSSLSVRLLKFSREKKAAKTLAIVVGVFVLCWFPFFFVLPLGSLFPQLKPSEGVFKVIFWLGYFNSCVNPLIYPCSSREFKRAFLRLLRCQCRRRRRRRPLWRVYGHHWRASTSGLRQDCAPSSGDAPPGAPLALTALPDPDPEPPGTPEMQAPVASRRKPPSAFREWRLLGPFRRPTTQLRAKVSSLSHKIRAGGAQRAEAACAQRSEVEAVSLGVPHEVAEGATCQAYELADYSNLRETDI
The series can be described thus: Intrinsic activity at α1D-ARs, aequorin calcium mobilization luminescence. Further details: key to α1D Profile: ANT—antagonist; AGO—agonist. Conditions: for pIC50: antagonist mode, three independent experiments; for pEC50: antagonist, as worded in abstract and text, read-out: EC50(α1D); for α1D Profile: functional profile. The series is classed as cell-based. How it is done: as §1, §2

For `O=S(=O)(NCC1CCN(CCOc2ccccc2OCC(F)(F)F)CC1)c1cc(Cl)ccc1F` [Compound 10, 5-Chloro-2-fluoro-N-[(1-{2-[(2,2,2-trifluoroethoxy)phenoxy]ethyl}piperidin-4-yl)methyl]benzenesulfonamide], in series [1], the pIC50 was 8.00 and the “α1B Profile” value is on record as “ANT”. For the same compound, in series [2], the “Major Metabolic Pathway” value is listed as “N-dealkylation”, the microsomal CLint at 10 μM turned out to be 91.7 µL/min/mg and the half-life at 10 μM amounted to 37.8 min. Besides, in series [3], the pIC50 is 8.57, the negative-log EC50 (pEC50) is 8.57 to 8.96 and the “α1D Profile” value was “ANT”.

In the case of `CCOc1ccccc1OCCN[C@H](C)Cc1ccc(OC)c(S(N)(=O)=O)c1` [tamsulosin, reference compound], in series [1], the pIC50 is 8.89 and the “α1B Profile” value is recorded as “ANT”. Also, in series [2], the “Major Metabolic Pathway” value was “N-dealkylation”, the microsomal CLint at 10 μM was determined as 41 µL/min/mg and the half-life at 10 μM stood at 83 min. In series [3], the negative-log IC50 (pIC50) is 11.30 and the “α1D Profile” value is listed as “ANT”.

With `O=S(=O)(NCC1CCN(CCOc2ccccc2OCC(F)(F)F)CC1)c1cccc(Cl)c1F` [Compound 9, 3-Chloro-2-fluoro-N-[(1-{2-[(2,2,2-trifluoroethoxy)phenoxy]ethyl}piperidin-4-yl)methyl]benzenesulfonamide], in series [1], the negative-log IC50 (pIC50) is 8.41 and the “α1B Profile” value is “ANT”. In addition, in series [2], the “Major Metabolic Pathway” value is “N-dealkylation”, the microsomal CLint at 10 μM was 67 µL/min/mg and the half-life at 10 μM was determined as 51.5 min. Also, in series [3], the negative logarithm of the IC50 (pIC50) was 8.96, the pEC50 was 8.96 and the “α1D Profile” value is on record as “ANT”.
